Data on 22 compounds can be found in ChEMBL document CHEMBL4219153, “Identification of second-generation P2X3 antagonists for treatment of pain” (Bioorg Med Chem Lett, 2018).

A short description of data set [1]: Protein binding in rat plasma. Conditions: read-out: PPB (converted). The data set is classed as ADME, cell-free.
Data set [2] deals with T1, P2X purinoceptor 3 (Homo sapiens) (UniProt P56373).
T1 sequence (whole entry): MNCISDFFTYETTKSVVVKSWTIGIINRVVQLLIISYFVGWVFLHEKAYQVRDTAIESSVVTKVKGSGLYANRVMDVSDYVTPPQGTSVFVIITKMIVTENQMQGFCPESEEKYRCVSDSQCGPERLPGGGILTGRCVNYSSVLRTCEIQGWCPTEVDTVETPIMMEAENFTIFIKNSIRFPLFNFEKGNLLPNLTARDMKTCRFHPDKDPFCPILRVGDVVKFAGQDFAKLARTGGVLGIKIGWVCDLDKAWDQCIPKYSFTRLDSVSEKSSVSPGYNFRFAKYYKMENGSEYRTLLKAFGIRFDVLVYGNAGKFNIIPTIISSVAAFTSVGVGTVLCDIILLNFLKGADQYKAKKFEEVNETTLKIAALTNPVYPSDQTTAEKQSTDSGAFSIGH
Briefly: Antagonist activity at recombinant human P2X3 receptor expressed in Flp-In-293 cells assessed as inhibition of alphabeta-meATP-induced calcium flux preincubated for 10 mins followed by alphabeta-meATP addition measured at 5 sec intervals by Fluo-4 dye based FLIPR assay. The data set is classed as cell-based.

In a further data set the target is T2, PXR (Homo sapiens, UniProt O75469).
T2 sequence (O75469 whole entry): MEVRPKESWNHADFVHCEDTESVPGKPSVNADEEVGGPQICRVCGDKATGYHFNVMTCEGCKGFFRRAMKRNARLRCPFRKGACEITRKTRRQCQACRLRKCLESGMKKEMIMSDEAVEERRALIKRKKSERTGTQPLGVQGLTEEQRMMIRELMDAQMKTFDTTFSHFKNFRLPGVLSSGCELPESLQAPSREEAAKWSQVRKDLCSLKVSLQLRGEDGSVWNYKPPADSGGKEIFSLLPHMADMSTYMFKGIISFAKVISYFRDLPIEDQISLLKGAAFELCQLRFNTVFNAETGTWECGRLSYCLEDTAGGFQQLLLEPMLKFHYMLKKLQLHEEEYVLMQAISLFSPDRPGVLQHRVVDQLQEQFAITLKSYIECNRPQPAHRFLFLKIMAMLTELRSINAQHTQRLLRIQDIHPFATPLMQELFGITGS
Description: Activation of PXR (unknown origin) at 10 uM relative to control. The data set is classed as ADME. Conditions: read-out: Activity.

Another data set addresses T3, P2X purinoceptor 3 (Homo sapiens, UniProt P56373).
T3 sequence (P56373 whole entry): T1 sequence (whole entry)
Description: Antagonist activity at recombinant human P2X3 receptor expressed in Flp-In-293 cells assessed as inhibition of CTP-induced […] current response preincubated for 2 mins followed by CTP addition along with test compound by whole cell patch-clamp method. Type of data set: cell-based.

The target in data set [3] is T4, UDP-glucuronosyltransferase 1A1 (Homo sapiens, UniProt P22309).
T4 sequence (P22309 whole entry): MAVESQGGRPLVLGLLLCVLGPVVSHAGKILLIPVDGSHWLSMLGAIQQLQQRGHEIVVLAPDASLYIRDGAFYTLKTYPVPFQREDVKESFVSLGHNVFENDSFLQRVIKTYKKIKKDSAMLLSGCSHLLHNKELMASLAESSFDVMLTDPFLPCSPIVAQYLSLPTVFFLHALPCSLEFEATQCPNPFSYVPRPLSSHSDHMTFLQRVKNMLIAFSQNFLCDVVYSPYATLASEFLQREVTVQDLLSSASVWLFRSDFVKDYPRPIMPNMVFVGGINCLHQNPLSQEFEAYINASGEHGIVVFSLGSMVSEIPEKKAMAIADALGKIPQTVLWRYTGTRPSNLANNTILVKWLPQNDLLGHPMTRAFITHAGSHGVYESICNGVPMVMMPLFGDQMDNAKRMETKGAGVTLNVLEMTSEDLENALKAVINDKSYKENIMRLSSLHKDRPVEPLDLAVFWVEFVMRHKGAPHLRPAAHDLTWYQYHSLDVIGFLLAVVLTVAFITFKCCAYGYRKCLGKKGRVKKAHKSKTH
Briefly: Inhibition of human UGT1A1 expressed in baculovirus infected insect cells using bilirubin as substrate measured after 10 mins by HPLC analysis. Type of data set: ADME.

The next data set relates to Rattus norvegicus. Briefly: Antinociceptive activity in complete freund's adjuvant induced mechanical hypersensitivity Sprague-Dawley rat model assessed as reversal of mechanical hyperalgesia by measuring hind paw withdrawal thresholds at 60 mg/kg, po. The data set is classed as functional.
A further data set addresses Cytochrome P450 2C9 (Homo sapiens, UniProt P11712). Description: Inhibition of CYP2C9 (unknown origin). The data set is classed as ADME.
Data set [4] is described as follows: Half life in rat. The data set is classed as ADME, organism-based. Conditions: in vivo.
Data set [5] is described as follows: Oral bioavailability in rat. As to conditions: in vivo. Type of data set: ADME, organism-based.
A short description of data set [6]: Oral bioavailability in rhesus monkey. The data set is classed as ADME, organism-based, Macaca mulatta. As to conditions: in vivo.
Data set [7] is described as follows: Oral bioavailability in dog. Type of data set: ADME, organism-based, Canis lupus familiaris. Conditions: in vivo.
The nature of data set [8]: Intrinsic clearance in rat. The data set is classed as ADME, organism-based. Conditions: in vivo.
In data set [9] the target is T5, Nuclear receptor subfamily 1 group I member 2 (Homo sapiens, UniProt O75469).
T5 sequence (O75469 whole entry): T2 sequence (O75469 whole entry)
Description: Activation of PXR (unknown origin). The data set is classed as ADME.

Data set [10] can be described thus: Half life in dog. Type of data set: ADME, organism-based, Canis lupus familiaris. As to conditions: in vivo.
The target of data set [11] is T4, UDP-glucuronosyltransferase 1A1. Description: Inhibition of UGT1A1 in human liver microsomes assessed as decrease in estradiol-3 glucuronidation. Type of data set: ADME.
A short description of data set [12]: Protein binding in dog plasma. The data set is classed as ADME, cell-free, Canis lupus familiaris. Conditions: read-out: PPB (converted).
The nature of data set [13]: Intrinsic clearance in dog. Type of data set: ADME, organism-based, Canis lupus familiaris. As to conditions: in vivo.

Chain of Cytochrome P450 2C9 (P11712 whole entry): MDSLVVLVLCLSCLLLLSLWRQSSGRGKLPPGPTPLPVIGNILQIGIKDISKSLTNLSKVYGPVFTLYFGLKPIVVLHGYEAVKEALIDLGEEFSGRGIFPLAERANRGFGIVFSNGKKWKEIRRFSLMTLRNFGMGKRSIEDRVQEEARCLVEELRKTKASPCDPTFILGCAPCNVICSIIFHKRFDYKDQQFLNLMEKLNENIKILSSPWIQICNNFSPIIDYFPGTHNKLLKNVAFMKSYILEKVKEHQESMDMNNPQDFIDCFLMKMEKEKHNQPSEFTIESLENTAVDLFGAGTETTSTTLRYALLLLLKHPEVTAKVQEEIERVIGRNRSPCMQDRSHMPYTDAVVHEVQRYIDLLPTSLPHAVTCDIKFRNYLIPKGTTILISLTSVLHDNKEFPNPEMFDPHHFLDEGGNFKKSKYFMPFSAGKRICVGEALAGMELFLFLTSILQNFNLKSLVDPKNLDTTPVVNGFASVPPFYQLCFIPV

One may read the IC50 as the point on the concentration scale where inhibition reaches its midpoint. Regarding `Cc1ccc(-c2cc(C(=O)N[C@H](C)c3ccc(F)c[n+]3[O-])cc(-c3ncccc3F)c2)nc1`, in data set [1], the fraction unbound is 0.096. The IC50 in [2] came to 2 nM.
What is called EC90 is the point of the concentration-response curve where the effect stands at 90%. By half-life is commonly meant the time needed for the level to fall by half in the phase considered. The term bioavailability denotes dose-corrected exposure relative to a reference, in per cent. By CLint scaled is commonly meant the capacity of the preparation to metabolise the compound, expressed as a volume cleared per time. Regarding `Cc1ccc(-c2cc(C(=O)N[C@H](C)c3ccc(F)cn3)cc(C3=NO[C@H](c4ccccn4)C3)c2)nc1`, in data set [1], the fraction unbound is 0.016. Also, the activity at 10 µM on PXR worked out at 47%. For the same compound, the IC50 on P2X purinoceptor 3 stood at 24 nM; in data set [3], 1000 nM; on Cytochrome P450 2C9, 5.7 µM; in data set [2], 21 nM. Further, the EC90 in the data set with Rattus norvegicus stood at 3 µM. The same compound had a half-life in data set [4] of 60 min. The figures for the bioavailability in data set [5], in data set [6] and in data set [7] were 60%, 47% and 68%, respectively. In addition, the CLint scaled in data set [8] worked out at 133 mL/min/kg.
With `Cc1ccc(-c2cc(C(=O)NCCc3nc(C)no3)cc(-c3ncccc3F)c2)nc1`, in data set [2], the IC50 is 45 nM.
With `Cc1ccc(-c2cc(C(=O)NCc3nc(C(C)C)no3)cc(-c3ncccc3F)c2)nc1`, in data set [2], the IC50 was found to be 155 nM.
Turning to `C[C@@H](NC(=O)c1cc(-c2ccc(F)cn2)cc(C(C)(C)O)c1)c1ccc(C(F)(F)F)[n+]([O-])c1`, the fraction unbound in data set [1] was 0.447. Moreover, in [4], the half-life is 28.8 min. Further, in [8], the CLint scaled is 477 mL/min/kg. In data set [2], the IC50 came to 82 nM.
`C[C@@H](NC(=O)c1cc(-c2ccc(Cl)cc2)cc(C(C)(C)O)c1)c1ccc(C(F)(F)F)[n+]([O-])c1`: in [1], the fraction unbound was 0.026. This compound gave a half-life in [4] of 144 min. The compound also registered a CLint scaled in data set [8] of 214 mL/min/kg. For the same compound, the IC50 in [2] was found to be 21 nM.
Turning to `Cc1ccc(-c2cc(C(=O)N[C@@H](C)c3nnc[nH]3)cc(-c3ncccc3F)c2)nc1`, the fraction unbound in data set [1] was 0.012. Also, in [2], the concentration for half-maximal inhibition (IC50) turned out to be 10 nM.
A word on the EC50: it is the concentration that produces a half-maximal response. `Cc1ccc(-c2cc(C(=O)N[C@H](C)c3ccc(F)cn3)cc(C(C)(C)O)c2)nc1`: in data set [1], the fraction unbound was 0.18. The compound further came in with an EC50 in data set [9] of 2 µM. Moreover, the IC50 in data set [2] was 67 nM.
With `Cc1ccc(-c2cc(C(=O)N[C@H](C)c3ccc(C(F)(F)F)[n+]([O-])c3)cc(-c3ncccc3F)c2)nc1`, the fraction unbound in data set [1] was 0.048. In addition, the IC50 in data set [2] amounted to 5 nM.
For `C[C@@H](NC(=O)c1cc(-c2ccc(Cl)cn2)cc(C(C)(C)O)c1)c1ccc(C(F)(F)F)[n+]([O-])c1`, the values for the fraction unbound in data set [1] and in data set [12] were 0.238 and 0.263, respectively. Also, the IC50 is 18 nM on P2X purinoceptor 3, 82 µM against Cytochrome P450 2C9, over 20 µM in data set [11] and 14 nM in [2]. Further, the EC90 with Rattus norvegicus was determined as 0.16 µM. The half-life in data set [10] is 234 min; in data set [4], 78 min. The bioavailability came to 13% in [5] and 63% in data set [7]. Further, the CLint scaled stood at 69 mL/min/kg in [8] and 7.7 mL/min/kg in data set [13]. The EC50 in data set [9] was over 30 µM.
With `Cc1ccc(-c2cc(C(=O)N[C@H](C)c3ccc(C(F)(F)F)[n+]([O-])c3)cc(C(C)(C)O)c2)nc1`, the fraction unbound in data set [1] is 0.376. Besides, the IC50 against Cytochrome P450 2C9 was over 50 µM; in data set [2], 5 nM. The EC50 in data set [9] was over 30 µM.
For `Cc1ccc(-c2cc(C(=O)N[C@H](C)c3nc(C)no3)cc(-c3ncccc3F)c2)nc1`, the fraction unbound in [1] was 0.004. For the same compound, the IC50 in data set [2] is 3 nM.
On to `Cc1ccc(-c2cc(C(=O)N[C@H](C)c3ccc(C(F)(F)F)nc3)cc(C(C)(C)O)c2)nc1`, for which the fraction unbound in [1] was 0.048. In addition, the IC50 against Cytochrome P450 2C9 is 19 µM; in data set [2], 14 nM. This compound had an EC50 in data set [9] of 18 µM.
For `Cc1ccc(-c2cc(C(=O)N[C@H](C)c3ccc(C(F)(F)F)nc3)cc(-c3ncccc3F)c2)nc1`, the fraction unbound in data set [1] was 0.014. Moreover, the IC50 in data set [2] was determined as 8 nM.
With `Cc1ccc(-c2cc(C(=O)NC3(c4nc(C)no4)CC3)cc(-c3ncccc3F)c2)nc1`, the IC50 in [2] was determined as 170 nM.
Take `Cc1ccc(-c2cc(C(=O)N[C@@H](c3nc(C)no3)C3CC3)cc(-c3ncccc3F)c2)nc1`: the IC50 in data set [2] was determined as 30 nM.
In the case of `Cc1ccc(-c2cc(C(=O)N[C@H](C)c3ccc(C(F)(F)F)[n+]([O-])c3)cc(C(C)(C)O)c2)cc1`, in data set [1], the fraction unbound is 0.046. In data set [4], this compound had a half-life of 12 min. This compound also registered a CLint scaled in data set [8] of 6790 mL/min/kg. Moreover, the IC50 in data set [2] came to 20 nM.
Turning to `Cc1ccc(-c2cc(C(=O)N[C@H](C)c3ccc(F)cn3)cc(-c3ncccc3F)c2)nc1`, the fraction unbound in [1] was 0.008. In data set [8], this compound registered a CLint scaled of 24800 mL/min/kg. The same compound registered an EC50 in data set [9] of 6 µM. Besides, the IC50 in data set [2] was found to be 8 nM.
Turning to `Cc1ccc(-c2cc(C(=O)N[C@H](C)c3ccc(F)cn3)cc(N3CCOCC3)c2)nc1`, the fraction unbound in [1] is 0.149. In data set [8], the CLint scaled was determined as 533 mL/min/kg. The compound further gave an EC50 in [9] of over 30 µM. For the same compound, the IC50 in [2] turned out to be 47 nM.
Turning to `Cc1ccc(-c2cc(C(=O)N[C@H](C)c3nnc[nH]3)cc(-c3ncccc3F)c2)nc1`, the IC50 in data set [2] was found to be 284 nM.
`Cc1ccc(-c2cc(C(=O)N[C@H](C)c3ccc(F)cn3)cc(-n3nccn3)c2)nc1`: the fraction unbound in [1] is 0.026. The compound also yielded a CLint scaled in data set [8] of 3910 mL/min/kg. For the same compound, the IC50 in data set [2] worked out at 37 nM.
For the compound `Cc1ccc(-c2cc(C(=O)N[C@@H](C)c3nc(C)no3)cc(-c3ncccc3F)c2)nc1`, the IC50 in data set [2] was 17 nM.
